Data on 23 compounds can be found in patent US5147878A, “Aminoalkoxyphenyl derivatives, process of preparation and compositions containing the same” (Sanofi, priority 1986, dated 1992).

Where a name gives a salt, the structure may show the parent alone.

The subject of the assay is isolated rat aorta. Kind of assay: Calcium inhibitory properties: contractile response to potassium-induced depolarization on isolated rat aorta. The following applies: for activity at 0.1 µM: 10^-7 M; for activity at 0.01 µM: 10^-8 M; for activity at 1 µM: 10^-6 M; for % of the maximum contractional effect: head printed "10^-" (exponent missing; first of three columns before 10^-6 M), 60 min. Also noted: species or system isolated organ, male Wistar rats. From the text: It is well established that the depolarization of a smooth muscle membrane by potassium renders the latter permeable to extracellular calcium and induces muscle contraction. Consequently, the measurement of the inhibition of the contractile response to depolarization by potassium, or the measurement of a relaxation of the tonic contraction on potassium depolarization, can represent an evaluation of the power of a compound as an inhibitor of the membrane permeability to Ca^++ ions. The technique used was as follows: The aorta was removed from male Wistar rats weighing approximately 300 g, and cut into strips approximately 40 mm long and 3 mm wide. These fragments were placed in a 25-ml isolated organ trough containing a modified Krebs-bicarbonate solution (112 mM NaCl; 5 mM KCl; 25 mM NaHCO3; 1 mM KH2 PO4; 1.2 mM MgSO4; 2.5 mM CaCl2; 11.5 mM glucose, distilled water to 1000 ml) through which a stream of 5-7% carbon dioxide in oxygen was passed, and maintained at 37° C. The preparation was connected to a force microsensor and the contractile response recorded after amplification on a recorder. A tension of 2 g was applied to the preparation. This tension was maintained for 60 minutes in the modified Krebs-bicarbonate solution, and contractions were then induced by replacing the Krebs-bicarbonate solution by a potassium-Krebs solution (17 mM NaCl; 100 mM KCl; 25 mM NaHCO3; 1 mM KH2 PO4; 1.2 mM MgSO4; 2.5 mM CaCl2; 11.5 mM glucose; distilled water to 1000 ml). When the contractile response of the preparation had become reproducible, a given amount of a compound of the invention was introduced into the bath. Sixty minutes later, a new spasm was induced by potassium depolarization. The results obtained on the aorta used in the experiment were then expressed as a percentage of the maximum contractional effect before incubation with the test substance. By way of examples, the results which follow were obtained, the compounds of formula (1) being in the form of the base, hydrochloride or oxalate.

Where [1] appears, read: Rattus norvegicus, 1 h, read-out: % of the maximum contractional effect.

Consider `CCCCN(CCCC)CCCOc1ccc([S+]([O-])c2c(C(C)C)cn3ccccc23)cc1` (racemic) [Ex. 54, 4-[3-(di-n-butylamino)propyl]oxyphenyl(2-isopropyl-1-indolizinyl)sulphoxide oxalate], for which, under setting [1], the activity at 0.1 µM turned out to be 74.3% and the activity at 0.01 µM came out at 82.4%.
With `CCc1cn2ccccc2c1S(=O)(=O)c1ccc(OCCCNC(C)(C)C)cc1` [Ex. 3, 2-ethyl-1-{4-[3-(tert-butylamino)propyloxy]benzenesulphonyl}indolizine hydrochloride], under setting [1], the activity at 1 µM stood at 30.7%.
As for `CCN(CC)CCCOc1ccc(S(=O)(=O)c2c(C)cn3ccccc23)cc1` [Ex. 4, 2-Methyl-1-{4-[3-(diethylamino)propyloxy]benzenesulphonyl}indolizine oxalate], the activity at 1 µM under setting [1] came to 77.2%.
`CCCN(CCC)CCCOc1ccc(S(=O)(=O)c2c(C)cn3ccccc23)cc1` [Ex. 5, 2-Methyl-1-{4-[3-(di-n-propylamino)propyloxy]benzenesulphonyl}indolizine]: the activity at 1 µM under setting [1] worked out at 48.9%.
In the case of `CCCCN(CCCC)CCCOc1c(C)cc(S(=O)(=O)c2c(CC)cn3ccccc23)cc1C.Cl` [Ex. 10, 2-Ethyl-1-{4-[3-(di-n-butylamino)propyloxy]-3,5-dimethylbenzenesulphonyl}indolizine hydrochloride], under setting [1], the activity at 1 µM was found to be 2.9%, the activity at 0.1 µM came to 49% and the activity at 0.01 µM was 82.6%. Moreover, the Activity ratio (compound / Compound D) came to 2.2.
`CCCCN(CCCC)CCCOc1ccc(S(=O)(=O)c2c(C(C)(C)C)cn3ccccc23)cc1` [Ex. 16, 2-tert-Butyl-1-{4-[3-(di-n-butylamino)propyloxy]-benzenesulphonyl}indolizine]: under setting [1], the activity at 0.1 µM was found to be 35.8% and the activity at 0.01 µM was found to be 78.7%.
As to `CCCCN(CCCC)CCOc1ccc(S(=O)(=O)c2c(CC)cn3ccccc23)cc1` [Ex. 22, 2-Ethyl-1-{4-[2-(di-n-butylamino)ethyloxy]benzenesulphonyl}indolizine hydrochloride], under setting [1], the activity at 0.1 µM came out at 37% and the activity at 0.01 µM was determined as 90.2%.
Consider `CC(C)(C)NCCCOc1ccc(S(=O)(=O)c2c(-c3ccccc3)cn3ccccc23)cc1` [Ex. 24, 2-Phenyl-1-{4-[3-(tert-butylamino)propyloxy]benzenesulphonyl}indolizine hydrochloride], for which, under setting [1], the activity at 1 µM worked out at 62.1%.
As to `Cc1cc(S(=O)(=O)c2c(-c3ccccc3)cn3ccccc23)ccc1OCCCNC(C)(C)C` [Ex. 25, 2-Phenyl-1-{4-[3-(tert-butylamino)propyloxy]-3-methylbenzenesulphonyl}indolizine hydrochloride], under setting [1], the activity at 1 µM was 67.7%.
In the case of `CC(C)c1cn2ccccc2c1S(=O)(=O)c1ccc(OCCCNCCc2ccccc2)cc1` [Ex. 31, 2-Isopropyl-1-{4-[3-(β-phenethylamino)propyloxy]benzenesulphonyl}indolizine hydrochloride], under setting [1], the activity at 1 µM was determined as 16.8%, the activity at 0.1 µM was 31.8% and the activity at 0.01 µM stood at 73.9%.
On to `CC(C)c1cn2ccccc2c1S(=O)(=O)c1ccc(OCCCNCc2ccccc2)cc1` [Ex. 32, 2-Isopropyl-1-{4-[3-(benzylamino)propyloxy]benzenesulphonyl}indolizine hydrochloride], for which, under setting [1], the activity at 1 µM is 3.6%, the activity at 0.1 µM amounted to 19.4% and the activity at 0.01 µM turned out to be 65.9%.
The like results for `CC(C)c1cn2ccccc2c1S(=O)(=O)c1ccc(OCCCN2CCN(c3ccccc3)CC2)cc1` [Ex. 33, 2-Isopropyl-1-{4-[3-(N-phenylpiperazino)propyloxy]benzenesulphonyl}indolizine] were, in that order, 24.6%, 57.6% and 87%.
For the compound `CC(C)c1cn2ccccc2c1S(=O)(=O)c1ccc(OCCCNCCc2ccccn2)cc1` [Ex. 34, 2-Isopropyl-1-{4-[3-(2-pyridylethylamino)propyloxy]benzenesulphonyl}indolizine dioxalate], under setting [1], the activity at 1 µM worked out at 3.3%, the activity at 0.1 µM stood at 28.1% and the activity at 0.01 µM was 82.6%.
Turning to `CC(C)c1cn2ccccc2c1S(=O)(=O)c1ccc(OCCCN2CCC(c3ccccc3)CC2)cc1` [Ex. 35, 2-Isopropyl-1-{4-[3-(4-phenylpiperidino)propyloxy]-benzenesulphonyl}indolizine], under setting [1], the activity at 1 µM came to 8.3%, the activity at 0.1 µM is 25% and the activity at 0.01 µM came to 65.6%.
Turning to `CCCCCCCCN(CCCCCCCC)CCCOc1ccc(S(=O)(=O)c2c(C(C)C)cn3ccccc23)cc1` [Ex. 36, 2-Isopropyl-1-{4-[3-(di-n-octylamino)propyloxy]-benzenesulphonyl}indolizine], under setting [1], the activity at 1 µM is 83.3% and the activity at 0.1 µM worked out at 93.7%.
For the compound `CCCCCN(CCCCC)CCCOc1ccc(S(=O)(=O)c2c(C(C)C)cn3ccccc23)cc1` [Ex. 37, 2-Isopropyl-1-{4-[3-(di-n-pentylamino)propyloxy]-benzenesulphonyl}indolizine hydrochloride], under setting [1], the activity at 0.1 µM was 48.7% and the activity at 0.01 µM is 77.8%.
For `CCc1cn2ccccc2c1S(=O)(=O)c1ccc(OCCCn2ccnc2)cc1` [Ex. 38, 2-Ethyl-1-{4-[3-(1-imidazolyl)propyloxy]benzenesulphonyl}indolizine], under setting [1], the activity at 0.1 µM came to 85.9%.
Consider `CCCCN(CCCC)CCCCOc1ccc(S(=O)(=O)c2c(C(C)C)cn3ccccc23)cc1` [Ex. 39, 2-Isopropyl-1-{4-[4-(di-n-butylamino)butyloxy]benzenesulphonyl}indolizine], for which, under setting [1], the activity at 0.1 µM was 17.9% and the activity at 0.01 µM worked out at 62.9%.
Turning to `CCCCN(CCCC)CCCCCOc1ccc(S(=O)(=O)c2c(CC)cn3ccccc23)cc1` [Ex. 40, 2-Ethyl-1-{4-[5-(di-n-butylamino)pentyloxy]benzenesulphonyl}indolizine], under setting [1], the activity at 0.1 µM worked out at 49.7% and the activity at 0.01 µM was 87.9%.
In the case of `COc1ccc(CN(C)CCCOc2ccc(S(=O)(=O)c3c(C(C)C)cn4ccccc34)cc2)cc1OC` [Ex. 41, 2-Isopropyl-1-[4-{3-[N-methyl-N-(3,4-dimethoxybenzyl)-amino]propyloxy}benzenesulphonyl]indolizine], under setting [1], the activity at 0.1 µM came to 5.3% and the activity at 0.01 µM came out at 26.1%. Also, the activity at 0.001 µM (Rattus norvegicus, 1 h, 10^-9 M, read-out: % of the maximum contractional effect) is 70.9%.
In the case of `COc1ccc(NCCCOc2ccc(S(=O)(=O)c3c(C(C)C)cn4ccccc34)cc2)cc1OC` [Ex. 44, 2-Isopropyl-1-{4-[3-(3,4-dimethoxyanilino)propyloxy]benzenesulphonyl}indolizine hydrochloride], under setting [1], the activity at 1 µM amounted to 29.8%, the activity at 0.1 µM came to 78.9% and the activity at 0.01 µM was 89.5%.
Regarding `CCCCN(CCCC)CCCOc1ccc(Sc2ccncc2)cc1.O=C(O)C(=O)O.O=C(O)C(=O)O` [Ex. 56, 4-{4-[3-(di-n-butylamino)propyloxy]phenylthio}pyridine dioxalate], the “% of the maximum contractional effect” value came out at 2.6%. Also, under setting [1], the activity at 1 µM amounted to 58% and the activity at 0.1 µM was 86.2%.
Consider `COc1ccc(CCN(C)CCCOc2ccc(Sc3ccncc3)cc2)cc1OC` [Ex. 57, 4-[4-{3-[N-methyl-N-(3,4-dimethoxy-β-phenethyl)amino]propyloxy}phenylthio]pyridine oxalate], for which the “% of the maximum contractional effect” value turned out to be 3.1%. In addition, under setting [1], the activity at 1 µM was found to be 59% and the activity at 0.1 µM stood at 85%.
